Measured values taken from the NIST ThermoML archive (doi:10.1016/j.tca.2004.11.001).
Numbers after ± are expanded uncertainties.

Assay: molar heat capacity at constant pressure; xn = mol fraction of the nth substance listed
Conditions: 101.33 kPa, Liquid

CCCCCCOCCOCCOCCOCCOCCO [2-(hexyloxytetraethoxy)ethanol] + O
molar heat capacity at constant pressure [J/K/mol]
Conditions	283 K	288 K	298 K	308 K	318 K	328 K	338 K
x1 = 0.00036	75.88 ± 0.29	75.76 ± 0.29	75.66 ± 0.29	75.64 ± 0.29	75.68 ± 0.29	75.77 ± 0.29	75.85 ± 0.29
x1 = 0.00072	76.25 ± 0.3	76.13 ± 0.3	76.04 ± 0.3	76.03 ± 0.29	76.07 ± 0.3	76.14 ± 0.3	76.23 ± 0.3
x1 = 0.00106	76.6 ± 0.3	76.5 ± 0.3	76.43 ± 0.3	76.42 ± 0.3	76.46 ± 0.3	76.53 ± 0.3	76.6 ± 0.3
x1 = 0.00146	77.04 ± 0.3	76.94 ± 0.3	76.92 ± 0.3	76.95 ± 0.3	76.95 ± 0.3	76.93 ± 0.3	76.96 ± 0.3
x1 = 0.00175	77.35 ± 0.3	77.33 ± 0.3	77.41 ± 0.3	77.35 ± 0.3	77.25 ± 0.3	77.18 ± 0.3	77.19 ± 0.3
x1 = 0.0018	77.46 ± 0.3	77.42 ± 0.3	77.48 ± 0.3	77.44 ± 0.3	77.35 ± 0.3	77.28 ± 0.3	77.3 ± 0.3
x1 = 0.00235	78.13 ± 0.3	78.25 ± 0.3	78.2 ± 0.3	78.06 ± 0.3	77.88 ± 0.3	77.81 ± 0.3	77.83 ± 0.3
x1 = 0.00281	78.98 ± 0.31	78.99 ± 0.31	78.74 ± 0.31	78.45 ± 0.3	78.27 ± 0.3	78.21 ± 0.3	78.27 ± 0.3
x1 = 0.00324	79.99 ± 0.31	79.7 ± 0.31	79.24 ± 0.31	78.86 ± 0.31	78.68 ± 0.3	78.63 ± 0.3	78.61 ± 0.3
x1 = 0.00357	80.51 ± 0.31	80.06 ± 0.31	79.53 ± 0.31	79.18 ± 0.31	78.99 ± 0.31	78.93 ± 0.31	78.99 ± 0.31
x1 = 0.00398	81 ± 0.31	80.46 ± 0.31	79.78 ± 0.31	79.43 ± 0.31	79.29 ± 0.31	79.25 ± 0.31	79.27 ± 0.31
x1 = 0.00473	81.76 ± 0.32	81.26 ± 0.32	80.57 ± 0.31	80.19 ± 0.31	80.01 ± 0.31	79.95 ± 0.31	79.97 ± 0.31
x1 = 0.00503	82.06 ± 0.32	81.55 ± 0.32	80.85 ± 0.31	80.47 ± 0.31	80.3 ± 0.31	80.24 ± 0.31	80.25 ± 0.31
x1 = 0.00543	82.41 ± 0.32	81.91 ± 0.32	81.22 ± 0.31	80.85 ± 0.31	80.67 ± 0.31	80.61 ± 0.31	80.57 ± 0.31
x1 = 0.00585	82.79 ± 0.32	82.27 ± 0.32	81.58 ± 0.32	81.22 ± 0.31	81.05 ± 0.31	80.99 ± 0.31	81.01 ± 0.31
x1 = 0.0063	83.1 ± 0.32	82.58 ± 0.32	81.9 ± 0.32	81.54 ± 0.31	81.37 ± 0.31	81.31 ± 0.31	81.32 ± 0.31
x1 = 0.0069	83.54 ± 0.32	83.03 ± 0.32	82.38 ± 0.32	82.04 ± 0.32	81.89 ± 0.32	81.82 ± 0.32	81.83 ± 0.32
x1 = 0.00752	84.02 ± 0.32	83.53 ± 0.32	82.92 ± 0.32	82.62 ± 0.32	82.49 ± 0.32	82.43 ± 0.32	82.46 ± 0.32
x1 = 0.00819	84.48 ± 0.33	84.03 ± 0.33	83.46 ± 0.32	83.18 ± 0.32	83.06 ± 0.32	83.02 ± 0.32	83.06 ± 0.32
x1 = 0.00886	85 ± 0.33	84.56 ± 0.33	84.02 ± 0.33	83.75 ± 0.33	83.64 ± 0.32	83.61 ± 0.32	83.65 ± 0.32
x1 = 0.00969	85.51 ± 0.33	85.11 ± 0.33	84.64 ± 0.33	84.42 ± 0.33	84.35 ± 0.33	84.37 ± 0.33	84.46 ± 0.33
x1 = 0.0118	87.08 ± 0.34	86.76 ± 0.34	86.37 ± 0.33	86.21 ± 0.33	86.16 ± 0.33	86.19 ± 0.33	86.22 ± 0.33
x1 = 0.01312	88 ± 0.34	87.75 ± 0.34	87.46 ± 0.34	87.33 ± 0.34	87.3 ± 0.34	87.32 ± 0.34	87.37 ± 0.34
x1 = 0.01647	90.68 ± 0.35	90.57 ± 0.35	90.49 ± 0.35	90.48 ± 0.35	90.51 ± 0.35	90.58 ± 0.35	90.44 ± 0.35
x1 = 0.01786	91.44 ± 0.35	91.39 ± 0.35	91.36 ± 0.35	91.4 ± 0.35	91.49 ± 0.35	91.6 ± 0.35	91.72 ± 0.35
x1 = 0.01996	92.94 ± 0.36	92.97 ± 0.36	93.07 ± 0.36	93.17 ± 0.36	93.26 ± 0.36	93.31 ± 0.36	93.32 ± 0.36
x1 = 0.02247	94.73 ± 0.37	94.84 ± 0.37	95.04 ± 0.37	95.24 ± 0.37	95.42 ± 0.37	95.55 ± 0.37	95.59 ± 0.37
x1 = 0.02729	98.3 ± 0.38	98.56 ± 0.38	99 ± 0.38	99.32 ± 0.38	99.54 ± 0.38	99.68 ± 0.39	99.81 ± 0.39
x1 = 0.0303	100.51 ± 0.39	100.88 ± 0.39	101.48 ± 0.39	101.9 ± 0.4	102.19 ± 0.4	102.38 ± 0.4	102.52 ± 0.4
x1 = 0.03518	103.98 ± 0.4	104.48 ± 0.41	105.27 ± 0.41	105.84 ± 0.41	106.24 ± 0.41	106.51 ± 0.41	106.68 ± 0.41
x1 = 0.0397	107.24 ± 0.42	107.83 ± 0.42	108.77 ± 0.42	109.44 ± 0.42	109.93 ± 0.42	110.24 ± 0.43	110.48 ± 0.43
x1 = 0.04518	111.01 ± 0.43	111.69 ± 0.43	112.79 ± 0.44	113.6 ± 0.44	114.17 ± 0.44	114.53 ± 0.44	114.82 ± 0.44
x1 = 0.05201	115.67 ± 0.45	116.48 ± 0.45	117.75 ± 0.46	118.68 ± 0.46	119.37 ± 0.46	119.87 ± 0.46	120.21 ± 0.47
x1 = 0.06018	121.38 ± 0.47	122.34 ± 0.47	123.83 ± 0.48	124.98 ± 0.48	125.84 ± 0.49	126.57 ± 0.49	126.88 ± 0.49
x1 = 0.07563	131.77 ± 0.51	132.81 ± 0.51	134.56 ± 0.52	135.97 ± 0.53	137.1 ± 0.53	137.96 ± 0.53	138.56 ± 0.54
x1 = 0.09777	146.15 ± 0.56	147.28 ± 0.57	149.31 ± 0.58	151.06 ± 0.58	152.51 ± 0.59	153.69 ± 0.6	154.59 ± 0.6
x1 = 0.1356	170.77 ± 0.66	171.98 ± 0.66	174.29 ± 0.68	176.42 ± 0.68	178.34 ± 0.69	180.03 ± 0.7	181.46 ± 0.71
x1 = 0.1978	210.08 ± 0.81	211.39 ± 0.82	213.91 ± 0.83	216.46 ± 0.84	218.95 ± 0.84	221.31 ± 0.86	223.41 ± 0.87
x1 = 0.3066	278.42 ± 1.1	279.68 ± 1.1	282.35 ± 1.1	285.3 ± 1.1	288.41 ± 1.1	291.49 ± 1.1	294.37 ± 1.1
x1 = 0.6924	513.75 ± 2	515.35 ± 2	519.97 ± 2	524.59 ± 2	529.47 ± 2.1	534.66 ± 2.1	538.64 ± 2.1
x1 = 1	686.95 ± 2.7	689.21 ± 2.7	693.95 ± 2.7	698.98 ± 2.7	704.91 ± 2.7	711.23 ± 2.7	716.97 ± 2.8

O [water] + CCCCCCOCCOCCOCCOCCOCCO
x2 = 0
Conditions	molar heat capacity at constant pressure [J/K/mol]
283 K	75.53 ± 0.29
288 K	75.41 ± 0.29
298 K	75.3 ± 0.29
308 K	75.28 ± 0.29
318 K	75.3 ± 0.29
328 K	75.35 ± 0.29
338 K	75.43 ± 0.29
